Test results as given in patent US6706664B1, “Benzoxazole compounds, process for the preparation thereof and herbicides” (UBE Industries, Ltd., priority 1999, dated 2004).

What was measured:
Design in all cases: key: 0: normal development; 1: Less damaged; 2: Slightly damaged; 3: Moderately damaged; 4: Severely damaged; 5: All killed
barnyardgrass [1] = test: Herbicidal test for paddy field; type: in vivo, Echinochloa crusgalli; details: paddy field pot, 500 g/ha dropwise at 1.5 leaf stage of barnyardgrass, 3 weeks, rank vs non-treated
Summary of the method: (§1)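 Scores run on a six-point scale from 0 for normal development to 5 for all plants killed, judged against non-treated pots. Plants were grown in Ube soil under 3 cm of standing water and treated by pipet with 500 g/ha of the compound once barnyardgrass had 1.5 leaves. Assessment followed 3 weeks in a glasshouse averaging 25° C.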

monochoria = test: Herbicidal test for paddy field; type: in vivo, Monochoria vaginalis; details: paddy field pot, 500 g/ha dropwise at 1.5 leaf stage of barnyardgrass, 3 weeks, rank vs non-treated
Summary of the method: as §1

corn = test: Soil treatment test for upland field; type: in vivo; details: 500 g/ha, glass house 25° C., 3 weeks
Summary of the method: (§2)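 Damage rated on a 0–5 scale (0 normal development, 5 all killed) after 3 weeks in a glasshouse at about 25 °C. Compounds applied as a water-diluted wettable powder (0.05% surfactant) sprayed at 500 g/ha onto soil surface over freshly sown seeds in alluvial Ube soil.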

cotton = test: Soil treatment test for upland field; type: in vivo; details: 500 g/ha, glass house 25° C., 3 weeks
Summary of the method: as §2

solgum = test: Soil treatment test for upland field; type: in vivo; details: 500 g/ha, glass house 25° C., 3 weeks
Summary of the method: as §2

soybean = test: Soil treatment test for upland field; type: in vivo; details: 500 g/ha, glass house 25° C., 3 weeks
Summary of the method: as §2

sugar beat = test: Soil treatment test for upland field; type: in vivo; details: 500 g/ha, glass house 25° C., 3 weeks
Summary of the method: as §2

wheat = test: Soil treatment test for upland field; type: in vivo; details: 500 g/ha, glass house 25° C., 3 weeks
Summary of the method: as §2

Large crabgrass [2] = test: Soil treatment test for upland field; type: in vivo, Digitaria adscendens; details: 500 g/ha, glass house 25° C., 3 weeks
Summary of the method: as §2

barnyardgrass [3] = test: Soil treatment test for upland field; type: in vivo, Echinochloa crusgalli; details: 500 g/ha, glass house 25° C., 3 weeks
Summary of the method: as §2

green foxtail [4] = test: Soil treatment test for upland field; type: in vivo, Setaria viridis; details: 500 g/ha, glass house 25° C., 3 weeks
Summary of the method: as §2

livid amaranth = test: Soil treatment test for upland field; type: in vivo, Amaranthus lividus; details: 500 g/ha, glass house 25° C., 3 weeks
Summary of the method: as §2

velvetleaf [5] = test: Soil treatment test for upland field; type: in vivo, Abutilon theophrasti; details: 500 g/ha, glass house 25° C., 3 weeks
Summary of the method: as §2

Large crabgrass [6] = test: Foliar spread test for upland field; type: in vivo, Digitaria adscendens; details: foliar spray 500 ppm, 3 weeks, rank vs non-treated
Summary of the method: (§3)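 Scoring used a 0–5 scale, where 0 meant normal development and 5 meant all plants killed, assessed 3 weeks after treatment. Plants had been grown about 2 weeks from seed in volcanic ash soil before a uniform spray at 500 ppm containing 0.5% surfactant.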

green foxtail [7] = test: Foliar spread test for upland field; type: in vivo, Setaria viridis; details: foliar spray 500 ppm, 3 weeks, rank vs non-treated
Summary of the method: as §3

annual bluegrass = test: Foliar spread test for upland field; type: in vivo, Poa annua; details: foliar spray 500 ppm, 3 weeks, rank vs non-treated
Summary of the method: as §3

common lambsquartes = test: Foliar spread test for upland field; type: in vivo, Chenopodium album; details: foliar spray 500 ppm, 3 weeks, rank vs non-treated
Summary of the method: as §3

velvetleaf [8] = test: Foliar spread test for upland field; type: in vivo, Abutilon theophrasti; details: foliar spray 500 ppm, 3 weeks, rank vs non-treated
Summary of the method: as §3

morning glory = test: Foliar spread test for upland field; type: in vivo, Ipomoea spps.; details: foliar spray 500 ppm, 3 weeks, rank vs non-treated
Summary of the method: as §3

SMILES	Effect Barnyardgrass (barnyardgrass [1])	Effect Monochoria (monochoria)	Effects Corn (corn)	Effects Cotton (cotton)	Effects Solgum (solgum)	Effects Soybean (soybean)	Effects Sugar beat (sugar beat)	Effects Wheat (wheat)	Effects Large crabgrass (Large crabgrass [2])	Effects Barnyardgrass (barnyardgrass [3])	Effects Green foxtail (green foxtail [4])	Effects Livid amaranth (livid amaranth)	Effects Velvetleaf (velvetleaf [5])	Effects Large crabgrass (Large crabgrass [6])	Effects Green foxtail (green foxtail [7])	Effects Annual bluegrass (annual bluegrass)	Effects Common lambsquarters (common lambsquartes)	Effects Velvetleaf (velvetleaf [8])	Effects Morning glory (morning glory)
CCC(Oc1ccc(F)c(C(F)(F)F)c1)c1nc2cc(Cl)ccc2o1 (stereo not shown) [Compound 139]	5	5	2	1	2	1	5	1	5	3	5	5	5	2	4	3	5	3	5
CCCC(Oc1ccc(F)c(C(F)(F)F)c1)c1nc2cc(C#N)c(Cl)cc2o1 (stereo not shown) [Compound 533]	5	4	0	0	0	0	5	1	5	3	5	5	5	3	4	4	4	2	5
CCC(Oc1cccc(C(F)(F)F)c1)c1nc2cc(Cl)c(C)cc2o1 (stereo not shown) [Compound 339, 1-(5-chloro-6-methylbenzoxazol-2-yl)-1-(3-(trifluoromethyl)phenoxy)propane]	4	5	1	0	1	1	4	1	5	3	5	5	4	3	2	2	4	2	2
CCCC(Oc1cccc(C(F)(F)F)c1)c1nc2cc(C(F)(F)F)ccc2o1 (stereo not shown) [Compound 200]	2	5	1	1	1	0	5	1	5	5	5	5	5	3	5	4	4	2	3
CCC(Oc1ccc(F)c(C(F)(F)F)c1)c1nc2cc([N+](=O)[O-])ccc2o1 (stereo not shown) [Compound 177]	5	5	2	2	2	1	5	2	5	3	5	5	5	2	5	4	4	4	5
CCC(Oc1ccc(F)c(C(F)(F)F)c1)c1nc2cc(F)c(F)cc2o1 (stereo not shown) [Compound 284]	4	5	2	1	2	2	5	2	5	5	5	5	5	4	4	3	4	2	3
CCCC(Oc1cccc(C(F)(F)F)c1)c1nc2cc(F)c(C(F)(F)F)cc2o1 (stereo not shown) [Compound 474]	2	5	2	1	1	2	5	1	5	5	5	5	5	5	5	3	5	2	5
